Patent US9006252B2, “Fused multicyclic compounds as protein kinase inhibitors” (National Health Research Institutes, priority 2008, dated 2015)
Several values for one entry are separate records, joined by “and”; a condition that tells them apart may be missing. Identical values can stand only once. Like-named read-outs stand apart in the source and are kept apart here.

Tests used:
Aurora A = target: T1, Aurora A (Homo sapiens, UniProt O14965); test: Aurora Kinase A luminescent kinase assay (Kinase-Glo); type: biochemical; conditions: IC50 values (concentration of a test compound at which activity of 50% of Aurora A is inhibited), GST-tAurora A (123-401aa) fusion protein
T1 construct: GST-tAurora A (123-401aa) fusion protein obtained above; made in house; host or cells: Sf9 insect cells (baculovirus, pBacPAK8)
T1 sequence (O14965 123-401): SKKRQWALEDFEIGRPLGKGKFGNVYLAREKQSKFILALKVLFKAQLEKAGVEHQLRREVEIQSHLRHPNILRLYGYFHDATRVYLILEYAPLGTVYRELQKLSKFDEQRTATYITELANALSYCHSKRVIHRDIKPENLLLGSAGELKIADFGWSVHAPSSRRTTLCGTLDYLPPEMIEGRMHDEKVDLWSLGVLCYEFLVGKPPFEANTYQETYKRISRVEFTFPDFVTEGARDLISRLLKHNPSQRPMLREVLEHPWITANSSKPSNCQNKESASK
Description: The Aurora A catalytic domain with an N-terminal GST tag was constructed in pBacPAK8 plasmid and expressed in sf9 cells. […] To concentrate GST-tAurora A, buffer was replaced with Tris buffer (100 mM Tris (pH 7.5), 300 mM NaCl, 1 mM EDTA, 4 mM DTT) using Amicon ultra-15 (MWCO:30K, Millipore) to 2.4 mg/ml. After the addition of equal volume of glycerol and 0.04% Triton X-100, the proteins were stored aliquoted at −80° C.
Briefly, a test compound, enzyme, substrate-tetra(LRRWSLG), DTT and ATP were dissolved in Aur buffer (50 mM Tris-HCl pH 7.4, 10 mM NaCl, 10 mM MgCl2, and 100 μg/ml BSA) individually before the assay. […] 5 μM ATP (5 μl), 1 mM DTT (5 μl) and 0.1 mM tetra(LRRWSLG) peptide substrate (5 μl) were added into the reactions of test compounds and GST-tAurora A. The reactions were incubated at 37° C. for 90 min. 50 μl of Kinase-Glo Plus Reagent (V3771, Promega) was added into the reactions, followed by the incubation at 25° C. for 20 min.

HCT-116 cells = test: HCT-116 cell viability, MTS assay; type: cell-based; conditions: Homo sapiens, HCT-116, 96 h, read-out: IC50 values, HCT-116 cell viability
Description: HCT-116 cell viability was examined by the MTS assay (Promega, Madison, Wis., USA). 2000 HCT-116 cells in 100 μL McCoy's 5a medium were seeded in each well of a 96-well plate. After 96-h incubation with a test compound, the cells were incubated with 20 μL of a MTS/PMS mixture (MTS/PMS ratio: 20:1) for 2 h at 37° C. in a humidified incubator with 5% CO2 to allow viable cells to convert the tetrazolium salt (MTS) into formazan. The amount/concentration of formazan, which indicates the number of live cells, was determined by measuring the absorbance at 490 nm using a PerkinElmer Victor2 plate reader (PerkinElmer, Shelton, Conn., USA).

| Structure (SMILES) | IC50 (Aurora A) | IC50 (HCT-116 cells; 96-h incubation, MTS) [nM] | IC50 (HCT-116 cells) [nM] |
| --- | --- | --- | --- |
| CCN(CCO)CCCOc1ccc2c(NCCc3ccc(NC(=O)Nc4ccccc4)cc3)ncnc2c1 [Compound 203] | 51 to 450 nM and < 1000 nM | – | – |
| O=C(Nc1cccc(Cl)c1)Nc1ncc(CCNc2ncnc3oc(-c4ccccc4)nc23)s1 [Compound 242] | 51 to 450 nM and < 1000 nM | – | – |
| O=C(Nc1ccccc1)Nc1ccc(CCNc2ncnc3oc(-c4ccncc4)nc23)cc1 [Compound 235] | 1 to 50 nM and < 1000 nM | – | – |
| CN(C)CCCOc1ccc2c(NCCc3ccc(NC(=O)Nc4ccccc4)cc3)ncnc2c1 [Compound 202] | 51 to 450 nM and < 1000 nM | – | – |
| O=C(Nc1ccccc1)Nc1ncc(CCNc2ncnc3oc(-c4ccccc4)nc23)s1 [Compound 81] | < 1000 nM and 51 to 450 nM | – | – |
| O=C(Nc1ccccc1)Nc1ccc(CCNc2ncnc3cc(N4CCOCC4)ccc23)cc1 [Compound 251] | 1 to 50 nM and < 1000 nM | < 100 | – |
| O=C(Nc1ccccc1)Nc1ccc(CCNc2ncnc3ccccc23)cc1 [Compound 249] | 1 to 50 nM and < 1000 nM | – | – |
| COc1ccc2c(NCCc3ccc(NC(=O)Nc4cccc(Cl)c4)cc3)c(C#N)cnc2c1 [Compound 213] | – | 101 to 850 | – |
| COc1ccc(-c2nc3c(NCCc4ccc(NC(=O)Nc5ccccc5)cc4)ncnc3o2)cc1 [Compound 206] | < 1000 nM and 51 to 450 nM | 101 to 850 | – |
| COc1cc2ncnc(NCCc3ccc(NC(=O)NC4CC4)cc3)c2cc1OC [Compound 230] | < 1000 nM | – | – |
| COc1cc2ncnc(NCCc3ccc(NC(=O)Nc4ccccc4)cc3)c2cc1OC [Compound 1, 1-(4-(2-(6,7-dimethoxyquinazolin-4-ylamino)ethyl)phenyl)-3-phenylurea] | 1 to 50 nM and < 1000 nM | – | < 100 |
| CN(C)CCCOc1ccc2c(NCCc3ccc(NC(=O)Nc4cccc(F)c4)cc3)ncnc2c1 [Compound 207] | < 1000 nM and 51 to 450 nM | 101 to 850 | – |
| O=C(Nc1ccccc1)Nc1ccc(CCNc2ncnc3oc(-c4ccccc4)nc23)cc1 [Compound 7, 1-Phenyl-3-{4-[2-(2-phenyl-oxazolo[5,4-d]pyrimidin-7-ylamino)-ethyl]-phenyl}-urea] | < 1000 nM and 51 to 450 nM | 101 to 850 | – |
| COc1ccc2c(NCCc3ccc(NC(=O)Nc4ccccc4)cc3)c(C#N)cnc2c1 [Compound 212] | 51 to 450 nM and < 1000 nM | 101 to 850 | – |
| COc1cc2ncc(C#N)c(NCCc3ccc(NC(=O)Nc4ccccc4)cc3)c2cc1OC [Compound 140] | < 1000 nM and 51 to 450 nM | – | – |
| O=C(Nc1cccc(F)c1)Nc1ncc(CCNc2ncnc3oc(-c4ccccc4)nc23)s1 [Compound 241] | 51 to 450 nM and < 1000 nM | – | – |
| O=C(Nc1ccccc1)Nc1ccc(CCNc2ncnc3ccccc23)cc1 [Compound 248] | 51 to 450 nM and < 1000 nM | – | < 100 |

| Structure (SMILES) | IC50 (Aurora A) | IC50 (HCT-116 cells; 96-h incubation, MTS) [nM] | IC50 (HCT-116 cells) [nM] |
| --- | --- | --- | --- |
| O=C(Nc1ccccc1)Nc1ccc(CCNc2ncnc3cc(F)ccc23)cc1 [Compound 253] | 51 to 450 nM and < 1000 nM | < 100 | – |
| COc1ccc2ncc(C#N)c(NCCc3ccc(NC(=O)Nc4ccccc4)cc3)c2c1 [Compound 231] | 51 to 450 nM and < 1000 nM | 101 to 850 | – |
| CCN(CCO)CCCOc1ccc2c(NCCc3ccc(NC(=O)Nc4cccc(F)c4)cc3)ncnc2c1 [Compound 209] | 1 to 50 nM and < 1000 nM | – | – |
| COc1cc2ncnc(N(C)CCc3ccc(NC(=O)Nc4ccccc4)cc3)c2cc1OC [Compound 240] | 51 to 450 nM and < 1000 nM | < 100 | – |
| COc1cc2ncc(C#N)c(NCCc3ccc(NC(=O)Nc4cccc(F)c4)cc3)c2cc1OC [Compound 225] | 51 to 450 nM and < 1000 nM | 101 to 850 | – |
| COc1cc2ncnc(OCCc3ccc(NC(=O)Nc4ccccc4)cc3)c2cc1OC [Compound 232] | 1 to 50 nM and < 1000 nM | 101 to 850 | – |
| O=C(Nc1ccccc1)Nc1ccc(CCNc2ncnc3oc(-c4ccccn4)nc23)cc1 [Compound 237] | 1 to 50 nM and < 1000 nM | 101 to 850 | – |
| CCN(CCO)CCCOc1ccc2c(NCCc3ccc(NC(=O)Nc4ccccc4)cc3)ncnc2c1 [Compound 20] | < 1000 nM and 1 to 50 nM | < 100 | – |
| COc1cc2ncc(C#N)c(NCCc3ccc(NC(=O)NC4CC4)cc3)c2cc1OC [Compound 226] | 51 to 450 nM and < 1000 nM | – | – |
| O=C(Nc1ccccc1)Nc1ccc(CCNc2ncnc3oc(-c4ccncc4)nc23)cc1 [Compound 236] | 51 to 450 nM and < 1000 nM | 101 to 850 | – |
| O=C(Nc1ccccc1)Nc1ccc(CCNc2ncnc3oc(-c4ccc(O)cc4)nc23)cc1 [Compound 220] | 1 to 50 nM and < 1000 nM | 101 to 850 | – |
| N#Cc1cnc2cc(O)ccc2c1NCCc1ccc(NC(=O)Nc2ccccc2)cc1 [Compound 229] | – | 101 to 850 | – |
| O=C(Nc1ccccc1)Nc1ccc(CCNc2ncnc3cc(OCCCCl)ccc23)cc1 [Compound 6, 1-(4-{2-[7-(3-Chloro-propoxy)-quinazolin-4-ylamino]-ethyl}-phenyl)-3-phenyl-urea] | < 1000 nM and 51 to 450 nM | – | – |
| CN(C)CCCOc1ccc2c(NCCc3ccc(NC(=O)Nc4cccc(F)c4)cc3)ncnc2c1 [Compound 208] | < 1000 nM and 51 to 450 nM | – | – |
| CN(C)Cc1ccccc1NC(=O)Nc1ccc(CCNc2ncnc3oc(-c4ccccc4)nc23)cc1 [Compound 72] | < 1000 nM and 51 to 450 nM | – | – |
| CCN(CCO)CCCOc1ccc2c(NCCc3ccc(NC(=O)Nc4cccc(F)c4)cc3)ncnc2c1 [Compound 22] | < 1000 nM and 1 to 50 nM | 101 to 850 | – |
| N#Cc1cnc2ccsc2c1NCCc1cnc(NC(=O)Nc2cccc(Cl)c2)s1 [Compound 190, 1-(3-chlorophenyl)-3-(5-(2-(6-cyanothieno[3,2-b]pyridin-7-ylamino)ethyl)thiazol-2-yl)urea] | < 1000 nM and 51 to 450 nM | – | – |

Results, then the molecule that gave them:

| IC50 (Aurora A) | IC50 (HCT-116 cells; 96-h incubation, MTS) [nM] | IC50 (HCT-116 cells) [nM] | Structure (SMILES) |
| --- | --- | --- | --- |
| < 1000 nM and 51 to 450 nM | 101 to 850 | – | COc1cc2ncnc(NCCc3cnc(NC(=O)Nc4cccc(F)c4)s3)c2cc1OC [Compound 56] |
| 1 to 50 nM and < 1000 nM | – | – | COc1cc2ncnc(NCCc3ccc(NC(=O)Nc4ccc(F)cc4)cc3)c2cc1OC [Compound 211] |
| 51 to 450 nM and < 1000 nM | – | – | COc1cc2ncc(C#N)c(NCCc3cnc(NC(=O)Nc4ccccc4)s3)c2cc1OC [Compound 227] |
| 1 to 50 nM and < 1000 nM | 101 to 850 | – | COc1cc2ncnc(NCCc3ccc(NC(=O)Nc4ccc(F)c(F)c4)cc3)c2cc1OC [Compound 247] |
| 1 to 50 nM and < 1000 nM | 101 to 850 | – | COc1cc2ncnc(NCCc3ccc(NC(=O)Nc4cccc(C(F)(F)F)c4)cc3)c2cc1OC [Compound 204] |
| 1 to 50 nM and < 1000 nM | – | – | COc1cc2ncnc(NCCc3ccc(NC(=O)Nc4ccccc4)cc3)c2cc1OC [Compound 201] |
| < 1000 nM and 51 to 450 nM | 101 to 850 | – | COc1cc2ncnc(NCCc3ccc(NC(=O)Nc4cccnc4)cc3)c2cc1OC [Compound 2, 1-{4-[2-(6,7-Dimethoxy-quinazolin-4-ylamino)-ethyl]-phenyl}-3-pyridin-3-yl-urea] |
| 1 to 50 nM and < 1000 nM | < 100 | – | COc1cc2ncnc(NCCc3cnc(NC(=O)Nc4cccc(Cl)c4)s3)c2cc1OC [Compound 228] |
| 1 to 50 nM and < 1000 nM | 101 to 850 | – | COc1cc2ncnc(NCCc3cnc(NC(=O)Nc4cccc(Br)c4)s3)c2cc1OC [Compound 252] |
| < 1000 nM and 51 to 450 nM | 101 to 850 | – | COc1cccc(NC(=O)Nc2ccc(CCNc3ncnc4cc(OC)c(OC)cc34)cc2)c1 [Compound 205] |
| 1 to 50 nM and < 1000 nM | < 100 | – | COc1cc2ncnc(NCCc3ccc(NC(=O)Nc4cc(F)cc(F)c4)cc3)c2cc1OC [Compound 244] |
| < 1000 nM and 1 to 50 nM | 101 to 850 | – | COc1cc2ncnc(NCCc3ncc(NC(=O)Nc4ccccc4)s3)c2cc1OC [Compound 47] |
| < 1000 nM and 51 to 450 nM | < 100 | – | COc1cc2ncnc(NCCc3ccc(NC(=O)Nc4cccc(F)c4)cc3)c2cc1OC [Compound 5, 1-{4-[2-(6,7-Dimethoxy-quinazolin-4-ylamino)-ethyl]-phenyl}-3-(3-fluoro-phenyl)-urea] |
| 1 to 50 nM and < 1000 nM | – | – | COc1cc2ncnc(NCCc3ccc(NC(=O)Nc4cc(F)cc(F)c4)cc3)c2cc1OC [Compound 245] |
